From ChEMBL document CHEMBL3507680, “University of Dundee, Gates Library screen for HepG2 cell viability”

Test: Human HepG2 cell viability assay in 384 well format
Format: toxicity, cell-based
Parameters: dose 125 nL, time 70.5 hour; concentration not given beside the values
Details: HepG2 cells, read-out: Inhibition
In the case of `N#Cc1cccc(OCc2ccoc2C(=O)N2CCCCCC2)c1`, the cytotoxicity at 70.5 h was -2.71%.
`Cc1csc(C2NC3(CCCC3)C(=O)N2CC2CC2)n1` (centres undefined) showed a cytotoxicity at 70.5 h of 4.39%.
Compound `Cc1nc(CN2CCCc3cc(OC(F)(F)F)ccc32)oc1C` has a cytotoxicity at 70.5 h of 4.79%.
With `COc1ccc2c(c1)CCCN2Cc1nc(C)c(C)o1` the cytotoxicity at 70.5 h was -4.99%.
Compound `CCc1nc(C2NC3(CCCC3)C(=O)N2CC2CC2)cs1` (centres undefined) has a cytotoxicity at 70.5 h of 22.7%.
Compound `O=C(c1ccc(CN2CCCCC2)cc1)N1CCCC1c1cccs1` (centres undefined) has a cytotoxicity at 70.5 h of -0.233%.
Work on `Cc1nc(C2NC3(CCCC3)C(=O)N2CC2CC2)cs1` (centres undefined) yielded a cytotoxicity at 70.5 h of -5.61%.
Work on `CCCN(Cc1ccccc1O)S(=O)(=O)N(C)CC` yielded a cytotoxicity at 70.5 h of -6.19%.
`CCC(C)S(=O)(=O)N(Cc1ccco1)Cc1ccccc1O` (centres undefined) gave a cytotoxicity at 70.5 h of -10.4%.
With `COCCN1CCC(CNC(=O)c2c[nH]c(=O)c(Cl)c2)CC1` the cytotoxicity at 70.5 h was -10.5%.
`Cc1noc(CCNC(=O)NCC(=O)NCc2ccccc2)n1` showed a cytotoxicity at 70.5 h of -4.83%.
With `NS(=O)(=O)CCN1CCN(c2ccccc2O)CC1` the cytotoxicity at 70.5 h was -0.407%.
In the case of `CC(=O)Nc1ccc(CNC(C)c2c(C)nn(C)c2C)cc1` (centres undefined), the cytotoxicity at 70.5 h was 13.1%.
In the case of `c1cnc(-c2nc(C3CCOC3)no2)cn1` (centres undefined), the cytotoxicity at 70.5 h was -3.44%.
In the case of `CN1CCN(C(=O)c2cccn2C)c2ccccc2C1`, the cytotoxicity at 70.5 h was -6.26%.
With `O=C(NCCOc1ccc(Cl)cn1)NCCc1ccccn1` the cytotoxicity at 70.5 h was -3.16%.
`Cc1cc(NC(=O)NCCOc2ccc(Cl)cn2)no1` showed a cytotoxicity at 70.5 h of -3.43%.
With `Cc1csc(C(C)(C)NCc2ncc(-c3ccc(F)cc3)o2)n1` the cytotoxicity at 70.5 h was -4.53%.
Work on `Cc1nn(C)c(C)c1C(C)NCc1ccsc1` (centres undefined) yielded a cytotoxicity at 70.5 h of 3.61%.
Work on `CSCc1cc(F)ccc1CNC(=O)N1CCC(CO)CC1` yielded a cytotoxicity at 70.5 h of -0.781%.
`CN1CCOC(CNCCOc2ccc(C#N)cc2)C1` (centres undefined) gave a cytotoxicity at 70.5 h of -5.57%.
Compound `COc1ccnc(NC(Cc2ccccc2)C(=O)N(C)C)n1` (centres undefined) has a cytotoxicity at 70.5 h of 5.68%.
Work on `OCCCN1CCCC1c1nc(Cc2ccc(F)cc2)no1` (centres undefined) yielded a cytotoxicity at 70.5 h of 8.04%.
`Fc1ccc(CNCCn2cccn2)cc1F` gave a cytotoxicity at 70.5 h of 16.8%.
In the case of `O=C(CNC1CCc2ncnn2C1)NCCc1cccs1` (centres undefined), the cytotoxicity at 70.5 h was 2.68%.
Compound `CCc1nc(C)c(C(C)N(C)CCOC)s1` (centres undefined) has a cytotoxicity at 70.5 h of 10.1%.
`O=C(NCCNc1ccccn1)NC1CCCC1` gave a cytotoxicity at 70.5 h of -4.33%.
With `CN(Cc1ccc(Cl)cc1)C(=O)Nc1cnn(CC(N)=O)c1` the cytotoxicity at 70.5 h was 8.79%.
In the case of `Cc1ccccc1CC(C)(C)NC(=O)c1cccc(OCC(N)=O)c1`, the cytotoxicity at 70.5 h was -4.51%.
For `Cn1cc(C(=O)NCCC(=O)N2CCCCC2)c(-c2cccnc2)n1`, the cytotoxicity at 70.5 h was 6.62%.
`COc1cccc(NC(=O)N2CCC(O)(C(F)(F)F)C2)c1` (centres undefined) gave a cytotoxicity at 70.5 h of -2.52%.
In the case of `O=C(c1ccccc1O)N1CCn2c(nnc2C(F)(F)F)C1`, the cytotoxicity at 70.5 h was -1.13%.
With `Cc1ccccc1CC(C)(C)NC(=O)CCOc1cccc(C(N)=O)c1` the cytotoxicity at 70.5 h was 4.51%.
`COc1ccc(CN(C(=O)CCC(C)C)c2cnn(C)c2)c(OC)c1` showed a cytotoxicity at 70.5 h of -4.57%.
Compound `NS(=O)(=O)CCN1CCN(c2cc(F)ccc2F)CC1` has a cytotoxicity at 70.5 h of 10.3%.
`CCOCc1cccc(NCc2c[nH]nc2-c2cccnc2)c1` gave a cytotoxicity at 70.5 h of -2.34%.
Work on `C=C(C)CN1CCCC1c1nc(Cc2ccc(F)cc2)no1` (centres undefined) yielded a cytotoxicity at 70.5 h of 12.4%.
`CCc1nc2n(n1)CC(NCCc1cccs1)CC2` (centres undefined) gave a cytotoxicity at 70.5 h of 3.55%.
`CCN1CCCN(S(=O)(=O)c2cc3ccccc3o2)CC1` gave a cytotoxicity at 70.5 h of -4.88%.
Compound `COCCCSc1ccc(NCc2ccc(C)cn2)cc1` has a cytotoxicity at 70.5 h of -6.35%.
Compound `Cc1csc(CNCC2CCCN(C(=O)OC(C)(C)C)C2)n1` (centres undefined) has a cytotoxicity at 70.5 h of -1.06%.
`Cc1nnc2n1CCN(CC(=O)NC(C)c1cc3ccccc3o1)C2` (centres undefined) showed a cytotoxicity at 70.5 h of 2.01%.
Work on `CCCn1nnnc1CSc1nccn1C` yielded a cytotoxicity at 70.5 h of -7.23%.
Work on `CN1CCN(C(C)(C)CNC(=O)C2CCCN2S(C)(=O)=O)CC1` (centres undefined) yielded a cytotoxicity at 70.5 h of -6.25%.
In the case of `Cc1cc(CN2CCN(C(=O)C3(C#N)CCCCC3)CC2)on1`, the cytotoxicity at 70.5 h was -4.13%.
In the case of `Cc1c(Br)cccc1C(=O)NCCC1CCCNC1` (centres undefined), the cytotoxicity at 70.5 h was 12%.
`c1cc2c(cc1C1(CNC3=NCCN3)CCCC1)OCCO2` showed a cytotoxicity at 70.5 h of -3.87%.
Work on `Clc1ccc(C2(CNC3=NCCN3)CCCC2)cc1` yielded a cytotoxicity at 70.5 h of 8.18%.
In the case of `Fc1ccc(C2(CNC3=NCCCN3)CCC2)cc1`, the cytotoxicity at 70.5 h was -0.346%.
